US12655142B2 (Merck Patent GmbH, priority 2019, dated 2026)
pIC50: −log10 of the molar value.

What was measured:
c-Kit(V654A) = target: T1, c-Kit(V654A) (Homo sapiens, UniProt P10721, V654A); assay: c-Kit(V654A) assay (33P-ATP filter binding kinase assay); format: biochemical; conditions: recombinant human c-Kit aa 544-end V654A, ATP 200 μM
T1 construct: recombinant human c-Kit, amino acids 544-end containing the V654A mutation; GST (N)
In short: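 Radiometric filter-binding read-out: substrate 33P incorporation counted by scintillation after P30 filtermat washes in 75 mM phosphoric acid and methanol. Enzyme: N-GST recombinant human c-Kit aa 544-end carrying V654A.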

[1] = Determination of Efflux-Ratio (ER) in Caco-2 cells; conditions: human, Caco-2, pH 7.4
Protocol: Determination of Efflux-Ratio (ER) in Caco-2 Cells
The efflux ratio of the test compounds was determined in Caco-2 human epithelial colorectal adenocarcinoma cell line (TC7 clone) using calculation of apparent permeability (Papp). Cell monolayers were differentiated in vitro for 14 days before the experiment. Subsequently, the test compound (in HBSS pH 7.4 at 1 μM final concentration) was applied on the donor side while HBSS buffer (pH 7.4) was added to the receiver wells. […] The plate was then incubated in a 5% CO2 incubator (37° C., 100% humidity). At the end of the 2 hours incubation period, 50 μL sample was removed from both donor and receiver wells and diluted 1:1 with equal volumes of acetonitrile for LC-MS/MS analysis. The LC-MS/MS analysis used a one-point calibration method from a 1 μM standard solution diluted 1:1 with equal volume of acetonitrile (consistent to the test samples).
The data was used to calculate the apparent permeabilities of the compounds in both apical to basolateral (Papp,AB) and basolateral to apical (Papp,BA) directions at 1 μM concentration in duplicate. The Papp values were calculated from the concentrations in the donor and receiver compartments using the following formula:
Efflux ratio was calculated according to the following formula:

[2] = target: T2, GIST430/654 cell line expressing mutated constitutively active cKIT receptor tyrosine kinase (Δ560-576 deletion and V654A point mutation) (Homo sapiens, UniProt P10721, DEL560-576/V654A); assay: Cellular cKIT autophosphorylation (phospho-Y307-cKIT, Luminex bead assay) in GIST430/654 cells; format: cell-based; conditions: compounds 45 min, read-out: GIST 430/654 IC50
T2 construct: endogenous in cells; host or cells: GIST430/654 cells
T2 sequence (P10721 with tags, fused parts or gaps DEL560-576/V654A): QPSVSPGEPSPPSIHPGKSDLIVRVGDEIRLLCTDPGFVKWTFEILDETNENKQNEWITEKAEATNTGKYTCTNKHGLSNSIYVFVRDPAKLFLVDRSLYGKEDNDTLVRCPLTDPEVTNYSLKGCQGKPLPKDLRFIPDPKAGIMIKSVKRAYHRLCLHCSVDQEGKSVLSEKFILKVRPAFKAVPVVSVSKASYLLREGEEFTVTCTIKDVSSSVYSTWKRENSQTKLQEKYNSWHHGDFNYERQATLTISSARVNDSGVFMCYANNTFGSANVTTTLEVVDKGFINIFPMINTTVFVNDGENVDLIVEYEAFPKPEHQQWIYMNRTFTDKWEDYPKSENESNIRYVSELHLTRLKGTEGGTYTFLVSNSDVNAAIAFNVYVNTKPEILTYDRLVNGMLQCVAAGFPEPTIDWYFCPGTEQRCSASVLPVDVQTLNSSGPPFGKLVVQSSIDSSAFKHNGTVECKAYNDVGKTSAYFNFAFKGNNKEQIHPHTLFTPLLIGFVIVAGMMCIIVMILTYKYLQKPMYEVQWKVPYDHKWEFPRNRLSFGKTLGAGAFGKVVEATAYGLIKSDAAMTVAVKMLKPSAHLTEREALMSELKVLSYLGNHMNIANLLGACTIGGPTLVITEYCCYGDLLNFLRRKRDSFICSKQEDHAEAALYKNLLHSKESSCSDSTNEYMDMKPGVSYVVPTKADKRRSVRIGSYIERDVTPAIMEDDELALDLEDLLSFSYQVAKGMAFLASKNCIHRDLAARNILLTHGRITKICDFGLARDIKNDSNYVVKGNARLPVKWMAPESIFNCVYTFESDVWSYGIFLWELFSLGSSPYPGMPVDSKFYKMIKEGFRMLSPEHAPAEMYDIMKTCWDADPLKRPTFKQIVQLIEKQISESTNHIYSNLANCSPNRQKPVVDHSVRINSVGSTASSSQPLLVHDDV
In short: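 Phospho-Y307 cKIT in lysates was measured on a Luminex bead assay, with total-cKIT capture overnight at 4 °C and phosphospecific plus PE secondary detection. Cells had 45 min exposure to a compound dilution series the day after plating: GIST430 (Δ560-576) or GIST430/654 (Δ560-576/V654A, grown with 100 nM imatinib). IC50 values are relative to 0.3% DMSO-treated cells.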

T1 sequence (P10721 544-976 V654A): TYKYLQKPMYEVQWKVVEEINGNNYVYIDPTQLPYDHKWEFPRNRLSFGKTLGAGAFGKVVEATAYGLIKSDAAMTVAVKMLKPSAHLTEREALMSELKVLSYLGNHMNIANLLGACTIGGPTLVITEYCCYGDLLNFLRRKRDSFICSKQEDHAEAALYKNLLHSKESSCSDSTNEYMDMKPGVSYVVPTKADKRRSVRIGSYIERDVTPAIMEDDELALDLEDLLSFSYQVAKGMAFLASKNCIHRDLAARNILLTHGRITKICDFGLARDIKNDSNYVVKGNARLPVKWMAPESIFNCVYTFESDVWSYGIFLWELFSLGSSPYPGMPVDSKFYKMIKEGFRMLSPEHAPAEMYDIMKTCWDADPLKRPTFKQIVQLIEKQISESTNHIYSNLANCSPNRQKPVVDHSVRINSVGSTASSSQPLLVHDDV

With Cn1cc(-c2ccc(CNc3cc(-c4cnc5cc(OCC6CNC6)ccn45)ncn3)cc2)cn1 [A167, 6-{7-[(azetidin-3-yl)methoxy]imidazo[1,2-a]pyridin-3-yl}-N-{[4-(1-methyl-1H-pyrazol-4-yl)phenyl]methyl}pyrimidin-4-amine] as the molecule, how does the pIC50 (c-Kit(V654A)) read?
Its pIC50 is 8.12.

And the efflux ratio at 2 h, 1 μM [1]?
Its efflux ratio at 2 h, 1 μM is greater than 50.

And the pIC50 [2]?
Its pIC50 is 6.30.

With Cn1cc(-c2ccc(CNc3cc(-c4cnc5cc(OCCC6CCNC6)ccn45)ncn3)cc2)cn1 (stereo not drawn) [A175, [4-(1-methyl-1H-pyrazol-4-yl)-benzyl]-{6-[7-(2-pyrrolidin-3-yl-ethoxy)-imidazo[1,2-a]pyridin-3-yl]-pyrimidin-4-yl}-amine] as the molecule, how does the pIC50 (c-Kit(V654A)) read?
The pIC50 was 8.01.

What about the efflux ratio at 2 h, 1 μM [1] of the same molecule?
The efflux ratio at 2 h, 1 μM was greater than 50.

And the pIC50 [2]?
The pIC50 was 6.32.

With Cn1ncc(-c2ccc(CNc3cc(-c4cnc5cc(OCCC6CCNC6)ccn45)ncn3)cc2)n1 (stereo not drawn) [A176, [4-(2-methyl-2H-[1,2,3]triazol-4-yl)-benzyl]-{6-[7-(2-pyrrolidin-3-yl-ethoxy)-imidazo[1,2-a]pyridin-3-yl]-pyrimidin-4-yl}-amine] as the molecule, how does the pIC50 (c-Kit(V654A)) read?
The pIC50 was 8.49.

And the efflux ratio at 2 h, 1 μM [1]?
The efflux ratio at 2 h, 1 μM was greater than 50.

What about the pIC50 [2] of the same molecule?
Its pIC50 is 7.08.

What does the source list for Cn1ncc(-c2ccc(CNc3cc(-c4cnc5cc(N6CCC(CCO)C6)ccn45)ncn3)cc2)n1 (stereo not drawn) [A179, 2-[1-(3-{6-[4-(2-methyl-2H-[1,2,3]triazol-4-yl)-benzylamino]-pyrimidin-4-yl}-imidazo[1,2-a]pyridin-7-yl)-pyrrolidin-3-yl]-ethanol]?
pIC50 (c-Kit(V654A)): 8.51; efflux ratio at 2 h, 1 μM [1]: > 50; pIC50 [2]: 7.62

With Cn1cc(-c2ccc(CNc3cc(-c4cnc5cc(OCC6CN(C7COC7)C6)ccn45)ncn3)cc2)cn1 [A183, N-{[4-(1-methyl-1H-pyrazol-4-yl)phenyl]methyl}-6-(7-{[1-(oxetan-3-yl)azetidin-3-yl]methoxy}imidazo[1,2-a]pyridin-3-yl)pyrimidin-4-amine] as the molecule, how does the pIC50 (c-Kit(V654A)) read?
The pIC50 was 8.11.

And the efflux ratio at 2 h, 1 μM [1]?
The efflux ratio at 2 h, 1 μM was less than 15.

And the pIC50 [2]?
The pIC50 was 7.57.

With Cn1cc(-c2ccc(CNc3cc(-c4cnc5cc(OCCCN6CCN(C7COC7)CC6)ccn45)ncn3)cc2)cn1 [A184, [4-(1-methyl-1H-pyrazol-4-yl)-benzyl]-(6-{7-[3-(4-oxetan-3-yl-piperazin-1-yl)-propoxy]-imidazo[1,2-a]pyridin-3-yl}-pyrimidin-4-yl)-amine] as the molecule, how does the pIC50 (c-Kit(V654A)) read?
Its pIC50 is 7.70.

And the efflux ratio at 2 h, 1 μM [1]?
The efflux ratio at 2 h, 1 μM was less than 15.

What about the pIC50 [2] of the same molecule?
Its pIC50 is 7.12.

With Cn1ncc(-c2ccc(CNc3cc(-c4cnc5cc(OCC6CCN(C7CC7)CC6)ccn45)ncn3)cc2)n1 [A186, {6-[7-(1-cyclopropyl-piperidin-4-ylmethoxy)-imidazo[1,2-a]pyridin-3-yl]-pyrimidin-4-yl}-[4-(2-methyl-2H-[1,2,3]triazol-4-yl)-benzyl]-amine] as the molecule, how does the pIC50 (c-Kit(V654A)) read?
Its pIC50 is 8.15.

And the efflux ratio at 2 h, 1 μM [1]?
The efflux ratio at 2 h, 1 μM was less than 15.

And the pIC50 [2]?
The pIC50 was 7.10.

With Cn1ncc(-c2ccc(CNc3cc(-c4cnc5cc(OCC6CCN(CC#N)CC6)ccn45)ncn3)cc2)n1 [A189, [4-(3-{6-[4-(2-methyl-2H-[1,2,3]triazol-4-yl)-benzylamino]-pyrimidin-4-yl}-imidazo[1,2-a]pyridin-7-yloxymethyl)-piperidin-1-yl]-acetonitrile] as the molecule, how does the pIC50 (c-Kit(V654A)) read?
Its pIC50 is 8.01.

What about the efflux ratio at 2 h, 1 μM [1] of the same molecule?
The efflux ratio at 2 h, 1 μM was less than 15.

What about the pIC50 [2] of the same molecule?
The pIC50 was 6.80.

With Cn1cc(-c2ccc(CNc3cc(-c4cnc5cc(OCC6CCN(CC(F)F)CC6)ccn45)ncn3)cc2)cn1 [A192, (6-{7-[1-(2,2-difluoro-ethyl)-piperidin-4-ylmethoxy]-imidazo[1,2-a]pyridin-3-yl}-pyrimidin-4-yl)-[4-(1-methyl-1H-pyrazol-4-yl)-benzyl]-amine] as the molecule, how does the pIC50 (c-Kit(V654A)) read?
The pIC50 was 7.55.

And the efflux ratio at 2 h, 1 μM [1]?
Its efflux ratio at 2 h, 1 μM is less than 15.

And the pIC50 [2]?
The pIC50 was 7.17.

Which results are given for Cn1cc(-c2ccc(CNc3cc(-c4cnc5cc(OCCN6CC[S+]([O-])CC6)ccn45)ncn3)cc2)cn1 [A194, [4-(1-methyl-1H-pyrazol-4-yl)-benzyl]-(6-{7-[2-(1-oxo-1|4-thiomorpholin-4-yl)-ethoxy]-imidazo[1,2-a]pyridin-3-yl}-pyrimidin-4-yl)-amine]?
pIC50 (c-Kit(V654A)): 8.21; efflux ratio at 2 h, 1 μM [1]: > 50; pIC50 [2]: 7.04

With Cn1cc(-c2ccc(CNc3cc(-c4cnc5cc(OCCN6Cc7ccncc7C6)ccn45)ncn3)cc2)cn1 [A195, (6-{7-[2-(1,3-dihydro-pyrrolo[3,4-c]pyridin-2-yl)-ethoxy]-imidazo[1,2-a]pyridin-3-yl}-pyrimidin-4-yl)-[4-(1-methyl-1H-pyrazol-4-yl)-benzyl]-amine] as the molecule, how does the pIC50 (c-Kit(V654A)) read?
Its pIC50 is 8.01.

And the efflux ratio at 2 h, 1 μM [1]?
The efflux ratio at 2 h, 1 μM was less than 15.

And the pIC50 [2]?
Its pIC50 is 7.14.

With Cn1cc(-c2ccc(CNc3cc(-c4cnc5cc(OCCN6CCC(C)(F)CC6)ccn45)ncn3)cc2)cn1 [A196, (6-{7-[2-(4-fluoro-4-methyl-piperidin-1-yl)-ethoxy]-imidazo[1,2-a]pyridin-3-yl}-pyrimidin-4-yl)-[4-(1-methyl-1H-pyrazol-4-yl)-benzyl]-amine] as the molecule, how does the pIC50 (c-Kit(V654A)) read?
Its pIC50 is 7.85.

And the efflux ratio at 2 h, 1 μM [1]?
The efflux ratio at 2 h, 1 μM was less than 15.

What about the pIC50 [2] of the same molecule?
The pIC50 was 6.85.

With Cn1cc(-c2ccc(CNc3cc(-c4cnc5cc(OCCN6CCN(C7CC7)CC6)ccn45)ncn3)cc2)cn1 [A197, (6-{7-[2-(4-cyclopropyl-piperazin-1-yl)-ethoxy]-imidazo[1,2-a]pyridin-3-yl}-pyrimidin-4-yl)-[4-(1-methyl-1H-pyrazol-4-yl)-benzyl]-amine] as the molecule, how does the pIC50 (c-Kit(V654A)) read?
The pIC50 was 7.92.

What about the efflux ratio at 2 h, 1 μM [1] of the same molecule?
The efflux ratio at 2 h, 1 μM was less than 15.

And the pIC50 [2]?
Its pIC50 is 6.82.

With CN1CC2CCC(C1)N2CCOc1ccn2c(-c3cc(NCc4ccc(-c5cnn(C)c5)cc4)ncn3)cnc2c1 [A198, (6-{7-[2-(3-methyl-3,8-diaza-bicyclo[3.2.1]oct-8-yl)-ethoxy]-imidazo[1,2-a]pyridin-3-yl}-pyrimidin-4-yl)-[4-(1-methyl-1H-pyrazol-4-yl)-benzyl]-amine] as the molecule, how does the pIC50 (c-Kit(V654A)) read?
The pIC50 was 8.00.

And the efflux ratio at 2 h, 1 μM [1]?
The efflux ratio at 2 h, 1 μM was 15 to 50.

What about the pIC50 [2] of the same molecule?
The pIC50 was 6.92.

With Cn1cc(-c2ccc(CNc3cc(-c4cnc5cc(OCCN6CC7CC6C[S+]7[O-])ccn45)ncn3)cc2)cn1 (stereo not drawn) [A199, [4-(1-methyl-1H-pyrazol-4-yl)-benzyl]-(6-{7-[2-(2-oxo-2|4-thia-5-aza-bicyclo[2.2.1]hept-5-yl)-ethoxy]-imidazo[1,2-a]pyridin-3-yl}-pyrimidin-4-yl)-amine] as the molecule, how does the pIC50 (c-Kit(V654A)) read?
The pIC50 was 8.01.

What about the efflux ratio at 2 h, 1 μM [1] of the same molecule?
Its efflux ratio at 2 h, 1 μM is greater than 50.

What about the pIC50 [2] of the same molecule?
Its pIC50 is 7.00.

With Cn1cc(-c2ccc(CNc3cc(-c4cnc5cc(OCCN6CCOCC(F)(F)C6)ccn45)ncn3)cc2)cn1 [A200, (6-{7-[2-(6,6-difluoro-[1,4]oxazepan-4-yl)-ethoxy]-imidazo[1,2-a]pyridin-3-yl}-pyrimidin-4-yl)-[4-(1-methyl-1H-pyrazol-4-yl)-benzyl]-amine] as the molecule, how does the pIC50 (c-Kit(V654A)) read?
Its pIC50 is 7.57.

And the efflux ratio at 2 h, 1 μM [1]?
The efflux ratio at 2 h, 1 μM was less than 15.

What about the pIC50 [2] of the same molecule?
The pIC50 was 6.72.

With Cn1cc(-c2ccc(CNc3cc(-c4cnc5cc(OCCN6CCN7CCOCC7C6)ccn45)ncn3)cc2)cn1 (stereo not drawn) [A201, (6-{7-[2-(hexahydro-pyrazino[2,1-c][1,4]oxazin-8-yl)-ethoxy]-imidazo[1,2-a]pyridin-3-yl}-pyrimidin-4-yl)-[4-(1-methyl-1H-pyrazol-4-yl)-benzyl]-amine] as the molecule, how does the pIC50 (c-Kit(V654A)) read?
The pIC50 was 7.89.

What about the efflux ratio at 2 h, 1 μM [1] of the same molecule?
The efflux ratio at 2 h, 1 μM was less than 15.

What about the pIC50 [2] of the same molecule?
Its pIC50 is 7.00.

With Cn1cc(-c2ccc(CNc3cc(-c4cnc5cc(OCCN6CCC(F)(F)CC6)ccn45)ncn3)cc2)cn1 [A202, (6-{7-[2-(4,4-difluoro-piperidin-1-yl)-ethoxy]-imidazo[1,2-a]pyridin-3-yl}-pyrimidin-4-yl)-[4-(1-methyl-1H-pyrazol-4-yl)-benzyl]-amine] as the molecule, how does the pIC50 (c-Kit(V654A)) read?
The pIC50 was 7.77.

What about the efflux ratio at 2 h, 1 μM [1] of the same molecule?
The efflux ratio at 2 h, 1 μM was less than 15.

What about the pIC50 [2] of the same molecule?
The pIC50 was 6.70.

What does the source list for Cn1cc(-c2ccc(CNc3cc(-c4cnc5cc(OCCN6CCn7cnnc7C6)ccn45)ncn3)cc2)cn1 [A203, (6-{7-[2-(5,6-dihydro-8H-[1,2,4]triazolo[4,3-a]pyrazin-7-yl)-ethoxy]-imidazo[1,2-a]pyridin-3-yl}-pyrimidin-4-yl)-[4-(1-methyl-1H-pyrazol-4-yl)-benzyl]-amine]?
pIC50 (c-Kit(V654A)): 8.01; efflux ratio at 2 h, 1 μM [1]: > 50; pIC50 [2]: 6.38

What does the source list for Cc1nc2n(n1)CCN(CCOc1ccn3c(-c4cc(NCc5ccc(-c6cnn(C)c6)cc5)ncn4)cnc3c1)C2 [A204, (6-{7-[2-(2-methyl-5,6-dihydro-8H-[1,2,4]triazolo[1,5-a]pyrazin-7-yl)-ethoxy]-imidazo[1,2-a]pyridin-3-yl}-pyrimidin-4-yl)-[4-(1-methyl-1H-pyrazol-4-yl)-benzyl]-amine]?
pIC50 (c-Kit(V654A)): 7.92; efflux ratio at 2 h, 1 μM [1]: 15 to 50; pIC50 [2]: 6.77

With CN(CC#N)CCOc1ccn2c(-c3cc(NCc4ccc(-c5cnn(C)c5)cc4)ncn3)cnc2c1 [A205, {methyl-[2-(3-{6-[4-(1-methyl-1H-pyrazol-4-yl)-benzylamino]-pyrimidin-4-yl}-imidazo[1,2-a]pyridin-7-yloxy)-ethyl]-amino}-acetonitrile] as the molecule, how does the pIC50 (c-Kit(V654A)) read?
The pIC50 was 8.00.

What about the efflux ratio at 2 h, 1 μM [1] of the same molecule?
Its efflux ratio at 2 h, 1 μM is less than 15.

And the pIC50 [2]?
Its pIC50 is 6.96.

Which results are given for Cn1cc(-c2ccc(CNc3cc(-c4cnc5cc(OCCN6CC(C)(C#N)C6)ccn45)ncn3)cc2)cn1 [A206]?
pIC50 (c-Kit(V654A)): 8.15; efflux ratio at 2 h, 1 μM [1]: < 15; pIC50 [2]: 7.00

With CN(CCOc1ccn2c(-c3cc(NCc4ccc(-c5cnn(C)c5)cc4)ncn3)cnc2c1)CC(F)(F)F [A208, [4-(1-methyl-1H-pyrazol-4-yl)-benzyl]-[6-(7-{2-[methyl-(2,2,2-trifluoro-ethyl)-amino]-ethoxy}-imidazo[1,2-a]pyridin-3-yl)-pyrimidin-4-yl]-amine] as the molecule, how does the pIC50 (c-Kit(V654A)) read?
Its pIC50 is 7.42.

What about the efflux ratio at 2 h, 1 μM [1] of the same molecule?
The efflux ratio at 2 h, 1 μM was less than 15.

And the pIC50 [2]?
The pIC50 was 6.64.
